Experimental data as given in US20060165732A1, “Fungal antigens and eosinophil activity” (priority 2002, published 2006).
Read-outs that look alike come from different tables or passages of the source.

Experiments:
[1] = test system: Alternaria-induced eosinophil degranulation; experiment: Effect of test agents on Alternaria-induced eosinophil degranulation (EDN release); format: cell-based, human
Protocol: (§1) To monitor eosinophil degranulation, 200 μL of freshly isolated eosinophils were resuspended in HBSS with 25 mM HEPES and 0.01% gelatin at 5×10^5 cells/mL and incubated with the a particular fungal extract. After incubation for 3 hours at 37° C. in a 5% CO2 atmosphere, cell-free supernatants from each well were collected and stored at −20° C. To quantitate eosinophil degranulation, the concentration of one of the eosinophil granule proteins in the sample supernatants, EDN, was measured by specific RIA, as described previously (Horie & Kita, 1994, J. Immunol., 152:5457). The RIA is a double-Ab competition assay in which radioiodinated EDN, rabbit anti-EDN Ab, and burro anti-rabbit IgG are used (Abu-Ghazaleh et al., 1989, J. Immunol., 142:2393). Sensitivity of the kit was 2 ng/mL. Total cellular EDN was measured in parallel supernatants from cells lysed with Nonidet P-40 detergent (Sigma Chemical Co.). All experiments were conducted in duplicate.
The mechanism of the eosinophil degranulation response to Alternaria antigens was examined. To test whether Alternaria proteases are involved in eosinophil activation, Alternaria extracts either were pretreated with a cocktail of protease inhibitors (Complete™, Roche Molecular Biochemicals, Indianapolis, Ind.) or were not pretreated (control). Eosinophils then were incubated with the pretreated or control Alternaria extracts for 4 hours, and EDN release was measured.
(§2) To examine the effect of cytochalasin B in the eosinophil response, eosinophils were preincubated with or without cytochalasin B (5 μg/mL) for 15 minutes at 37° C. After preincubation, eosinophils were exposed to either Alternaria culture extract (100 μg/mL) or IL-5 (10 ng/mL) for 3 hours at 37° C., and EDN release from eosinophils was measured.
(§3) Next, the effect of a Ca^2+ chelator, EGTA, on Alternaria- or IL-5-induced eosinophil degranulation was investigated.
(§4) Eosinophils were pre-treated with various concentrations of ionomycin (FIG. 8D) or thapsigargin (FIG. 8E) for 15 minutes, and then exposed to Alternaria culture extract (100 μg/mL) or IL-5 (10 ng/mL) for 3 hours at 37° C.

[2] = test system: IL-5-induced eosinophil degranulation; format: cell-based, human
Protocol: as §1, §2, §3, §4

PBMC = experiment: Effect of fluticasone propionate on IL-5 production by PBMC (ELISA); format: cell-based, human
Protocol: PBMC were isolated from 30 mL of blood drawn from patients with chronic sinusitis, bronchial asthma, or normal individuals by density centrifugation using Histopaque®. Cells were then suspended in RPMI 1640 medium supplemented with 10% fetal bovine serum at 2×10^6 cells/mL and incubated for 3 days at 37° C. in 96-well tissue culture plates with medium alone, 25 μg/mL Alternaria cellular extract, 25 μg/mL Dermatophagoides Pteronyssinus (Der P; Greer Laboratories; a mite allergen), or 5 μg/mL Concanavalin A. Since Concanavalin A is a very potent inducer, supernatants of PBMC were diluted 50-fold before they were analyzed for the presence of IL-5.
To examine the effects of glucocorticoids on the eosinophilic response, fluticasone propionate (10^−10 M to 10^−6 M, GlaxoSmithKline) was added to the culture. After incubation, cell-free supernatants were collected and analyzed for IL-5 concentrations using an ELISA assay (Endogen, Inc.). In the experiments with Concanavalin A, the amount of IL-5 determined by ELISA was multiplied by 50 to account for the dilution factor.

mice = experiment: Airway eosinophilia in mice (BAL fluid cells, DiffQuick stain); format: in vivo
Protocol: Mice were sensitized at day 14 with 20 μg/dose OVA or 100 μg/dose Alternaria extracts (cellular or culture) by intraperitoneal injection of the antigens followed by intranasal challenge with the appropriate antigen at 250 μg/dose on days 28, 30, and 32.
Eosinophils were detected in mice by collecting BAL fluids, isolating the cells using a cytospin preparation, and staining the cells with DiffQuick stain (DADE Behring, Inc., Newark, Del.).
Furthermore, at 250 μg/dose of Alternaria culture extract, about 10% of the mice died before day 8 due to massive respiratory failure.
To examine the role of IL-5 in airway eosinophilia induced by Alternaria culture extracts, mice were pre-treated with 25 μg/dose of an anti-IL-5 mAb (Pharmingen) or a control antibody (rat IgG) 24 hours before being intranasally challenged at days 0, 3, and 6 with 250 μg/dose OVA, or 250 μg/dose Alternaria culture extract. The number of eosinophils was analyzed by DiffQuick staining at day 8.

[3] = fluticasone 10^−10 M, asthma patient PBMC, 3 days
[4] = fluticasone 10^−10 M, medium alone, asthma patient PBMC, 3 days
[5] = fluticasone 10^−10 M, multiplied by 50 for dilution
[6] = fluticasone 10^−10 M, supernatant diluted 50-fold
[7] = pre-treatment 15 minutes, various concentrations, IL-5 10 ng/mL, 3 hours
[8] = pre-treatment 15 minutes, various concentrations, Alternaria culture extract 100 μg/mL, 3 hours

In the case of `NCCc1ccc(S(=O)(=O)F)cc1` [AEBSF], the “inhibition of Alternaria-induced eosinophil degranulation” value ([1]; Alternaria extracts pretreated with inhibitor, 4 hours, EDN release) is reported as 89%.

In the case of `CCCCCCCCCCCCCCCCCCNC(=O)OCC(COC(=O)N(Cc1cccc[n+]1CC)C(C)=O)OC` (stereo not drawn) [CV6209], the IC50 ([1]; Homo sapiens, Eosinophil, read-out: IC50 for Alternaria-induced degranulation) is reported as about 1000 nM.

With `O=C(O)CN(CCN(CC(=O)O)CC(=O)O)CC(=O)O` [EDTA] the “effect on IL-5-induced eosinophil degranulation” value [2] was “completely inhibited” and the “effect on Alternaria-induced eosinophil degranulation” value ([1]; various concentrations) was “completely inhibited”.

`O=C(O)CN(CCOCCOCCN(CC(=O)O)CC(=O)O)CC(=O)O` [EGTA] was tested, and the “effect on IL-5-induced degranulation” value ([2]; 1 mM, pretreatment 15 minutes) was “only partially inhibited”, the “effect on IL-5-induced degranulation” value ([2]; 10 mM, pretreatment 15 minutes) was “almost completely inhibited” and the “effect on Alternaria-induced eosinophil degranulation” value ([1]; 1 mM, pretreatment 15 minutes) was “almost completely inhibited”. For the same molecule, the “effect on Alternaria-induced eosinophil degranulation” value ([1]; 10 mM, pretreatment 15 minutes) was “almost completely inhibited”.

For `C=CC[C@@H]1/C=C(\C)C[C@H](C)C[C@H](OC)[C@H]2O[C@@](O)(C(=O)C(=O)N3CCCC[C@H]3C(=O)O[C@H](/C(C)=C/[C@@H]3CC[C@@H](O)[C@H](OC)C3)[C@H](C)[C@@H](O)CC1=O)[C@H](C)C[C@@H]2OC` [FK-506], the “effect on IL-5-induced eosinophil degranulation” value ([2]; various concentrations) was “no effect”.

In the case of `CN(C)CCCn1cc(C2=C(c3c[nH]c4ccccc34)C(=O)NC2=O)c2ccccc21` [GF109203X], the “effect on IL-5-induced eosinophil degranulation” value ([2]; various concentrations) is reported as “partially inhibited”.

For `O=c1c(-c2ccc(O)cc2)coc2cc(O)cc(O)c12` [Genistein], the “effect on IL-5-induced eosinophil degranulation” value ([2]; various concentrations) was “completely inhibited”.

For `Cn1c2ccccc2c2c3c(c4c5ccccc5n(CCC#N)c4c21)CNC3=O` [Go 6976], the “effect on IL-5-induced eosinophil degranulation” value ([2]; various concentrations) was “completely inhibited”.

In the case of `COc1cccc(-c2cc(=O)c3ccccc3o2)c1N` [PD98059], the “effect on IL-5-induced eosinophil degranulation” value ([2]; various concentrations) is reported as “partially inhibited”.

For `CC(=O)c1c(O)c(C)c(O)c(Cc2c(O)c3c(c(C(=O)/C=C/c4ccccc4)c2O)OC(C)(C)C=C3)c1O` [Rottelerin], the “effect on IL-5-induced eosinophil degranulation” value ([2]; various concentrations) was “completely inhibited”.

For `C[S+]([O-])c1ccc(-c2nc(-c3ccncc3)c(-c3ccc(F)cc3)[nH]2)cc1` (stereo not drawn) [SB203580], the “effect on IL-5-induced eosinophil degranulation” value ([2]; various concentrations) was “completely inhibited”.

In the case of `CCCC[C@@H](C=O)NC(=O)[C@H](CC(C)C)NC(=O)OCc1ccccc1` [calpeptin, Calpeptin], the “effect on IL-5-induced eosinophil degranulation” value ([2]; various concentrations) is reported as “partially inhibited”.

For `C=C1[C@@H](C)[C@H]2[C@H](Cc3ccccc3)NC(=O)[C@]23OC(=O)/C=C/[C@H](O)CCC[C@@H](C)C/C=C/[C@H]3[C@@H]1O` [cytochalasin B], the “effect on IL-5-induced degranulation” value ([2]; 5 μg/mL preincubation 15 minutes, IL-5 10 ng/mL, 3 hours) was “inhibited” and the “effect on Alternaria-induced eosinophil degranulation” value ([1]; 5 μg/mL preincubation 15 minutes, Alternaria culture extract 100 μg/mL, 3 hours) was “not affected”.

With `CCC(=O)O[C@]1(C(=O)SCF)[C@H](C)C[C@H]2[C@@H]3C[C@H](F)C4=CC(=O)C=C[C@]4(C)[C@@]3(F)[C@@H](O)C[C@@]21C` [fluticasone propionate] the “IL-5 production in the presence of Concanavalin A” value (PBMC) was “inhibited”, the “IL-5 production in Alternaria-induced PBMC” value (PBMC; 10^−10 M, lowest concentration) was “significantly inhibited” and the “IL-5 production in the presence of Der P” value (PBMC; 10—O M as printed) was “inhibited”. For the same molecule, the “IL-5, Cellular Alternaria Extract (25 μg/mL), 1” value (PBMC; fluticasone 10^−9 M, asthma patient PBMC, 3 days) was 0.4, the “IL-5, Cellular Alternaria Extract (25 μg/mL), 1” value (PBMC; [3]) was 1.4 and the “IL-5, Cellular Alternaria Extract (25 μg/mL), 2” value (PBMC; [3]) was 3.9. For the same molecule, the “IL-5, Cellular Alternaria Extract (25 μg/mL), mean” value (PBMC; [3]) was 2.6, the “IL-5, Der P (25 μg/mL), 2” value (PBMC; [3]) was 0.9 and the “IL-5, Der P (25 μg/mL), mean” value (PBMC; [3]) was 0.9. For the same molecule, the “IL-5, Con A (5 μg/mL), mean” value (PBMC; fluticasone 10^−10 M, mean of values multiplied by 50) was 101, the “IL-5, Medium, 1” value (PBMC; [4]) was 1.3 and the “IL-5, Medium, 2” value (PBMC; [4]) was 0.3. The “IL-5, Medium, mean” value (PBMC; [4]) was 0.8, the “IL-5, Con A (5 μg/mL), 1*50” value (PBMC; [5]) was 87 and the “IL-5, Con A (5 μg/mL), 2*50” value (PBMC; [5]) was 115. The “IL-5, Con A (5 μg/mL), 1” value (PBMC; [6]) was 1.7 and the “IL-5, Con A (5 μg/mL), 2” value (PBMC; [6]) was 2.3.

`C[C@H](CCC(=O)O)C[C@H](C)C[C@H](C)C(=O)/C=C(\O)[C@H](C)C[C@H](C)C/C=C/[C@@H](C)[C@@H](O)[C@@H](C)[C@@H](O)C[C@@H]1CC[C@@](C)([C@H]2CC[C@@](C)([C@@H](C)O)O2)O1` [ionomycin] was tested, and the “effect on IL-5-induced eosinophil degranulation” value [2, 7] was “significantly inhibited” and the “effect on Alternaria-induced eosinophil degranulation” value [1, 8] was “synergistically increased”.

With `C/C=C(/C)C(=O)O[C@H]1C(C)=C2[C@H]([C@@H]1OC(=O)CCCCCCC)[C@@](C)(OC(C)=O)C[C@H](OC(=O)CCC)[C@@]1(O)[C@H]2OC(=O)[C@@]1(C)O` [thapsigargin] the “effect on IL-5-induced eosinophil degranulation” value [2, 7] was “significantly inhibited” and the “effect on Alternaria-induced eosinophil degranulation” value [1, 8] was “synergistically increased”.

With Herbmycin the “effect on IL-5-induced eosinophil degranulation” value ([2]; various concentrations) was “completely inhibited”.

B1: OVA: OVA antigen used for sensitization and challenge of mice (protein, UniProt P01012 2-386, looked up)
Ovalbumin: GSIGAASMEFCFDVFKELKVHHANENIFYCPIAIMSALAMVYLGAKDSTRTQINKVVRFDKLPGFGDSIEAQCGTSVNVHSSLRDILNQITKPNDVYSFSLASRLYAEERYPILPEYLQCVKELYRGGLEPINFQTAADQARELINSWVESQTNGIIRNVLQPSSVDSQTAMVLVNAIVFKGLWEKAFKDEDTQAMPFRVTEQESKPVQMMYQIGLFRVASMASEKMKILELPFASGTMSMLVLLPDEVSGLEQLESIINFEKLTEWTSSNVMEERKIKVYLPRMKMEEKYNLTSVLMAMGITDVFSSSANLSGISSAESLKISQAVHAAHAEINEAGREVVGSAEAGVDAASVSEEFRADHPFLFCIKHIATNAVLFFGRCVSP
B1 was tested, and the “airway eosinophilia in non-sensitized (naïve) mice” value (mice; intranasal challenge only) was “not” and the “airway eosinophilia in sensitized and challenged mice” value (mice; intraperitoneal sensitization day 14, intranasal challenge 250 μg/dose days 28, 30, 32) was “developed airway eosinophilia by day 34”.
